In ChEMBL document CHEMBL2074016, “Comparative studies on in vitro methods for evaluating in vivo function of MDR1 P-glycoprotein” (Pharm Res, 2001):
One block for each compound: values may come before it.

What was measured:
[1] = target: T1, ATP-dependent translocase ABCB1 (Homo sapiens, UniProt P08183); assay: (§1) TP_TRANSPORTER: ATP hydrolysis in membrane fraction from High Five (BTI-TN5B1-4) cells; format: functional, cell membranes, BTI-TN-5B1-4; details: bti-tn-5b1-4
[2] = target: P-glycoprotein 1 and 3 (MDR1a/MDR1b) (Mus musculus, UniProt P21447+P06795); assay: TP_TRANSPORTER: increase in brain concentration in mdr1a/1b(-/-) mouse; format: functional, organism-based; details: in vivo
[3] = target: T1, ATP-dependent translocase ABCB1; assay: TP_TRANSPORTER: transepithelial transport (apical to basal) of Daunorubicin (Daunomycin) at a concentration of 200 nM in MDR1-expressing LLC-PK1 cells; format: functional, cell-based; details: pig, llc-pk1, 0.2 µM
[4] = target: T1, ATP-dependent translocase ABCB1; assay: TP_TRANSPORTER: transepithelial transport (apical to basal) of Dexamethasone at a concentration of 24.7 nM in MDR1-expressing LLC-PK1 cells; format: functional, cell-based; details: pig, llc-pk1, 0.0247 µM
[5] = target: T1, ATP-dependent translocase ABCB1; assay: TP_TRANSPORTER: transepithelial transport (apical to basal) of Digoxin at a concentration of 52.6 nM in MDR1-expressing LLC-PK1 cells; format: functional, cell-based; details: pig, llc-pk1, 0.0526 µM
[6] = target: ATP-dependent translocase ABCB1 (P-glycoprotein) (Homo sapiens, UniProt P08183); assay: as §1; format: functional, cell membranes, BTI-TN-5B1-4; details: membrane fraction from High Five (BTI-TN5B1-4) cells
Sequence of ATP-dependent translocase ABCB1 (P-glycoprotein) (P08183 whole entry): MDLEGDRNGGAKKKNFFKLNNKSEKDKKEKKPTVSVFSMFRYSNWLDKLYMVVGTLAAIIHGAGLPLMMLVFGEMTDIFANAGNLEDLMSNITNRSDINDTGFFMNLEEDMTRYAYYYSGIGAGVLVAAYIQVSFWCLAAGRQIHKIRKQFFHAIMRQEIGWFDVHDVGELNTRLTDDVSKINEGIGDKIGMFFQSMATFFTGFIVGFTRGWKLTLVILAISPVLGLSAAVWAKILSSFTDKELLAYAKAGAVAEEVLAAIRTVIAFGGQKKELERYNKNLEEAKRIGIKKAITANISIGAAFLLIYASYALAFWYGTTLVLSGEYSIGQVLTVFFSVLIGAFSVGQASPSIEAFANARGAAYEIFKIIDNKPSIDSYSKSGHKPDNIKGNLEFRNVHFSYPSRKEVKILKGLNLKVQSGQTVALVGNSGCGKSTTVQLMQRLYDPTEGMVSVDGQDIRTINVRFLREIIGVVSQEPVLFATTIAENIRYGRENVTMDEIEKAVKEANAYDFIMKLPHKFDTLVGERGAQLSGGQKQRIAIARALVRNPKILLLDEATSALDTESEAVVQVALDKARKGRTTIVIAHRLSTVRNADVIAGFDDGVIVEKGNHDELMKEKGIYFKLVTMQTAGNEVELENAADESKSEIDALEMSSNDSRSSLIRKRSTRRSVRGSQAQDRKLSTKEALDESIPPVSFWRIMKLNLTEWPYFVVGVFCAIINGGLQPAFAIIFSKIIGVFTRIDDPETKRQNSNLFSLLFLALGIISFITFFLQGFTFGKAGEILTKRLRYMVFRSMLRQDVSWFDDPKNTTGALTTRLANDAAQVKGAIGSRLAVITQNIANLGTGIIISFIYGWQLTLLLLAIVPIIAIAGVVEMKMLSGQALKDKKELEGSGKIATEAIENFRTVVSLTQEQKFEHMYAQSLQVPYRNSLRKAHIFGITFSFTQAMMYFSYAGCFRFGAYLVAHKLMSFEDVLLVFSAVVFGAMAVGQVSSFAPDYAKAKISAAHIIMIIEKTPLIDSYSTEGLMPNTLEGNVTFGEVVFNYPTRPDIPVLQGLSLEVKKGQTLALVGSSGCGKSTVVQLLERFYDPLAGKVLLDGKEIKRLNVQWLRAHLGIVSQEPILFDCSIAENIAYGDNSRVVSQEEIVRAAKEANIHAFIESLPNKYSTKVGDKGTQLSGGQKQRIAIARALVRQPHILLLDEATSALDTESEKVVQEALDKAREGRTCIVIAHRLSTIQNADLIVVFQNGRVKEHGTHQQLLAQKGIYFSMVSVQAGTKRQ

[7] = target: T1, ATP-dependent translocase ABCB1; assay: TP_TRANSPORTER: transepithelial transport (apical to basal) of Loperamide at a concentration of 1 uM in MDR1-expressing LLC-PK1 cells; format: functional, cell-based; details: pig, llc-pk1, 1 µM
[8] = target: T1, ATP-dependent translocase ABCB1; assay: TP_TRANSPORTER: transepithelial transport (apical to basal) of Progesterone at 7 nM in MDR1-expressing LLC-PK1 cells; format: functional, cell-based; details: pig, llc-pk1, 0.007 µM
[9] = target: T1, ATP-dependent translocase ABCB1; assay: TP_TRANSPORTER: transepithelial transport (apical to basal) of Vinblastine at a concentration of 22.5 nM in MDR1-expressing LLC-PK1 cells; format: functional, cell-based; details: pig
[10] = tested on: CN1C(=O)CN=C(c2ccccc2)c2cc(Cl)ccc21; assay: as §1; format: functional, cell membranes, BTI-TN-5B1-4

T1 sequence (P08183 whole entry): as above

Compound: CN/C(=N/CCSCc1nc[nH]c1C)NC#N [CIMETIDINE]
Activity [1]: is not a substrate [-]

Activity [2]: substrate [+] | Activity [3]: substrate [+]
Compound: COc1cccc2c1C(=O)c1c(O)c3c(c(O)c1C2=O)C[C@@](O)(C(C)=O)C[C@@H]3O[C@H]1C[C@H](N)[C@H](O)[C@H](C)O1 [DAUNORUBICIN]

Activity [4]: substrate [+] | Activity [1]: is not a substrate [-]
Compound: C[C@@H]1C[C@H]2[C@@H]3CCC4=CC(=O)C=C[C@]4(C)[C@@]3(F)[C@@H](O)C[C@]2(C)[C@@]1(O)C(=O)CO [DEXAMETHASONE]

Activity [5]: substrate [+]
Compound: C[C@H]1O[C@@H](O[C@H]2[C@@H](O)C[C@H](O[C@H]3[C@@H](O)C[C@H](O[C@H]4CC[C@@]5(C)[C@H](CC[C@@H]6[C@@H]5C[C@@H](O)[C@]5(C)[C@@H](C7=CC(=O)OC7)CC[C@]65O)C4)O[C@@H]3C)O[C@@H]2C)C[C@H](O)[C@@H]1O [DIGOXIN]

Compound: C[C@]12CC[C@@H]3c4ccc(O)cc4CC[C@H]3[C@@H]1CC[C@@H]2O[C@@H]1O[C@H](C(=O)O)[C@@H](O)[C@H](O)[C@H]1O [ESTRADIOL 17B GLUCURONIDE]
Activity [1]: substrate [+]

Compound: CN(C)C(=O)C(CCN1CCC(O)(c2ccc(Cl)cc2)CC1)(c1ccccc1)c1ccccc1 [LOPERAMIDE]
Km [6]: 13.8 µM | Activity [7]: substrate [+]

Compound: CC(=O)[C@H]1CC[C@H]2[C@@H]3CCC4=CC(=O)CC[C@]4(C)[C@H]3CC[C@]12C [PROGESTERONE]
Activity [8]: is not a substrate [-]

Activity [9]: substrate [+]
Compound: CC[C@]1(O)C[C@@H]2CN(CCc3c([nH]c4ccccc34)[C@@](C(=O)OC)(c3cc4c(cc3OC)N(C)[C@H]3[C@@](O)(C(=O)OC)[C@H](OC(C)=O)[C@]5(CC)C=CCN6CC[C@]43[C@@H]65)C2)C1 [VINBLASTINE]

Compound: ATP-dependent translocase ABCB1 (Homo sapiens)
Km [10]: 72.4 µM
